Experimental data published in the NIST ThermoML archive (doi:10.1021/je800224k).

Conditions: Liquid

CCCCCCn1cc[n+](C)c1.F[B-](F)(F)F [1-hexyl-3-methylimidazolium tetrafluoroborate]
Conditions | mass density [kg/m3]
293.15 K, 101.33 kPa, Vibrating tube method | 1148.5
313.15 K, 101.33 kPa, Vibrating tube method | 1134.7
313.3 K, 10000 kPa, Bellows volumetry | 1139
313.3 K, 20000 kPa, Bellows volumetry | 1144
313.3 K, 30000 kPa, Bellows volumetry | 1149
313.3 K, 40000 kPa, Bellows volumetry | 1154
313.3 K, 50000 kPa, Bellows volumetry | 1158
313.3 K, 60000 kPa, Bellows volumetry | 1162
313.3 K, 70000 kPa, Bellows volumetry | 1167
313.3 K, 80000 kPa, Bellows volumetry | 1171
313.3 K, 90000 kPa, Bellows volumetry | 1174
313.3 K, 100000 kPa, Bellows volumetry | 1178
313.3 K, 110000 kPa, Bellows volumetry | 1182
313.3 K, 120000 kPa, Bellows volumetry | 1186
313.3 K, 130000 kPa, Bellows volumetry | 1189
313.3 K, 140000 kPa, Bellows volumetry | 1193
313.3 K, 150000 kPa, Bellows volumetry | 1196
313.3 K, 160000 kPa, Bellows volumetry | 1199
313.3 K, 170000 kPa, Bellows volumetry | 1202
313.3 K, 180000 kPa, Bellows volumetry | 1206
313.3 K, 190000 kPa, Bellows volumetry | 1209
313.3 K, 200000 kPa, Bellows volumetry | 1212
332.5 K, 10000 kPa, Bellows volumetry | 1126
332.5 K, 20000 kPa, Bellows volumetry | 1131
332.5 K, 30000 kPa, Bellows volumetry | 1136
332.5 K, 40000 kPa, Bellows volumetry | 1141
332.5 K, 50000 kPa, Bellows volumetry | 1146
332.5 K, 60000 kPa, Bellows volumetry | 1150
332.5 K, 70000 kPa, Bellows volumetry | 1154
332.5 K, 80000 kPa, Bellows volumetry | 1159
332.5 K, 90000 kPa, Bellows volumetry | 1163
332.5 K, 100000 kPa, Bellows volumetry | 1167
332.5 K, 110000 kPa, Bellows volumetry | 1170
332.5 K, 120000 kPa, Bellows volumetry | 1174
332.5 K, 130000 kPa, Bellows volumetry | 1178
332.5 K, 140000 kPa, Bellows volumetry | 1181
332.5 K, 150000 kPa, Bellows volumetry | 1185
332.5 K, 160000 kPa, Bellows volumetry | 1188
332.5 K, 170000 kPa, Bellows volumetry | 1192
332.5 K, 180000 kPa, Bellows volumetry | 1195
332.5 K, 190000 kPa, Bellows volumetry | 1198
332.5 K, 200000 kPa, Bellows volumetry | 1201
333.15 K, 101.33 kPa, Vibrating tube method | 1121
352.6 K, 10000 kPa, Bellows volumetry | 1113
352.6 K, 20000 kPa, Bellows volumetry | 1118
352.6 K, 30000 kPa, Bellows volumetry | 1123
352.6 K, 40000 kPa, Bellows volumetry | 1128
352.6 K, 50000 kPa, Bellows volumetry | 1133
352.6 K, 60000 kPa, Bellows volumetry | 1138
352.6 K, 70000 kPa, Bellows volumetry | 1142
352.6 K, 80000 kPa, Bellows volumetry | 1147
352.6 K, 90000 kPa, Bellows volumetry | 1151
352.6 K, 100000 kPa, Bellows volumetry | 1155
352.6 K, 110000 kPa, Bellows volumetry | 1159
352.6 K, 120000 kPa, Bellows volumetry | 1163
352.6 K, 130000 kPa, Bellows volumetry | 1167
352.6 K, 140000 kPa, Bellows volumetry | 1170
352.6 K, 150000 kPa, Bellows volumetry | 1174
352.6 K, 160000 kPa, Bellows volumetry | 1177
352.6 K, 170000 kPa, Bellows volumetry | 1181
352.6 K, 180000 kPa, Bellows volumetry | 1184
352.6 K, 190000 kPa, Bellows volumetry | 1187
352.6 K, 200000 kPa, Bellows volumetry | 1191
353.15 K, 101.33 kPa, Vibrating tube method | 1107.6
372.7 K, 10000 kPa, Bellows volumetry | 1099
372.7 K, 20000 kPa, Bellows volumetry | 1105
372.7 K, 30000 kPa, Bellows volumetry | 1111
372.7 K, 40000 kPa, Bellows volumetry | 1116
372.7 K, 50000 kPa, Bellows volumetry | 1121
372.7 K, 60000 kPa, Bellows volumetry | 1126
372.7 K, 70000 kPa, Bellows volumetry | 1131
372.7 K, 80000 kPa, Bellows volumetry | 1135
372.7 K, 90000 kPa, Bellows volumetry | 1139
372.7 K, 100000 kPa, Bellows volumetry | 1144
372.7 K, 110000 kPa, Bellows volumetry | 1148
372.7 K, 120000 kPa, Bellows volumetry | 1152
372.7 K, 130000 kPa, Bellows volumetry | 1156
372.7 K, 140000 kPa, Bellows volumetry | 1160
372.7 K, 150000 kPa, Bellows volumetry | 1163
372.7 K, 160000 kPa, Bellows volumetry | 1167
372.7 K, 170000 kPa, Bellows volumetry | 1170
372.7 K, 180000 kPa, Bellows volumetry | 1174
372.7 K, 190000 kPa, Bellows volumetry | 1177
372.7 K, 200000 kPa, Bellows volumetry | 1180
393 K, 10000 kPa, Bellows volumetry | 1087
393 K, 20000 kPa, Bellows volumetry | 1093
393 K, 30000 kPa, Bellows volumetry | 1098
393 K, 40000 kPa, Bellows volumetry | 1104
393 K, 50000 kPa, Bellows volumetry | 1109
393 K, 60000 kPa, Bellows volumetry | 1114
393 K, 70000 kPa, Bellows volumetry | 1119
393 K, 80000 kPa, Bellows volumetry | 1124
393 K, 90000 kPa, Bellows volumetry | 1128
393 K, 100000 kPa, Bellows volumetry | 1133
393 K, 110000 kPa, Bellows volumetry | 1137
393 K, 120000 kPa, Bellows volumetry | 1141
393 K, 130000 kPa, Bellows volumetry | 1145
393 K, 140000 kPa, Bellows volumetry | 1149
393 K, 150000 kPa, Bellows volumetry | 1153
393 K, 160000 kPa, Bellows volumetry | 1157
393 K, 170000 kPa, Bellows volumetry | 1160
393 K, 180000 kPa, Bellows volumetry | 1164
393 K, 190000 kPa, Bellows volumetry | 1167
393 K, 200000 kPa, Bellows volumetry | 1171
413 K, 10000 kPa, Bellows volumetry | 1074
413 K, 20000 kPa, Bellows volumetry | 1080
413 K, 30000 kPa, Bellows volumetry | 1086
413 K, 40000 kPa, Bellows volumetry | 1092
413 K, 50000 kPa, Bellows volumetry | 1098
413 K, 60000 kPa, Bellows volumetry | 1103
413 K, 70000 kPa, Bellows volumetry | 1108
413 K, 80000 kPa, Bellows volumetry | 1113
413 K, 90000 kPa, Bellows volumetry | 1118
413 K, 100000 kPa, Bellows volumetry | 1122
413 K, 110000 kPa, Bellows volumetry | 1126
413 K, 120000 kPa, Bellows volumetry | 1131
413 K, 130000 kPa, Bellows volumetry | 1135
413 K, 140000 kPa, Bellows volumetry | 1139
413 K, 150000 kPa, Bellows volumetry | 1143
413 K, 160000 kPa, Bellows volumetry | 1147
413 K, 170000 kPa, Bellows volumetry | 1150
413 K, 180000 kPa, Bellows volumetry | 1154
413 K, 190000 kPa, Bellows volumetry | 1158
413 K, 200000 kPa, Bellows volumetry | 1161
432.9 K, 10000 kPa, Bellows volumetry | 1062
432.9 K, 20000 kPa, Bellows volumetry | 1068
432.9 K, 30000 kPa, Bellows volumetry | 1075
432.9 K, 40000 kPa, Bellows volumetry | 1081
432.9 K, 50000 kPa, Bellows volumetry | 1086
432.9 K, 60000 kPa, Bellows volumetry | 1092
432.9 K, 70000 kPa, Bellows volumetry | 1097
432.9 K, 80000 kPa, Bellows volumetry | 1102
432.9 K, 90000 kPa, Bellows volumetry | 1107
432.9 K, 100000 kPa, Bellows volumetry | 1112
432.9 K, 110000 kPa, Bellows volumetry | 1116
432.9 K, 120000 kPa, Bellows volumetry | 1121
432.9 K, 130000 kPa, Bellows volumetry | 1125
432.9 K, 140000 kPa, Bellows volumetry | 1129
432.9 K, 150000 kPa, Bellows volumetry | 1133
432.9 K, 160000 kPa, Bellows volumetry | 1137
432.9 K, 170000 kPa, Bellows volumetry | 1141
432.9 K, 180000 kPa, Bellows volumetry | 1145
432.9 K, 190000 kPa, Bellows volumetry | 1148
432.9 K, 200000 kPa, Bellows volumetry | 1152
452.6 K, 10000 kPa, Bellows volumetry | 1049
452.6 K, 20000 kPa, Bellows volumetry | 1056
452.6 K, 30000 kPa, Bellows volumetry | 1063
452.6 K, 40000 kPa, Bellows volumetry | 1069
452.6 K, 50000 kPa, Bellows volumetry | 1075
452.6 K, 60000 kPa, Bellows volumetry | 1081
452.6 K, 70000 kPa, Bellows volumetry | 1086
452.6 K, 80000 kPa, Bellows volumetry | 1092
452.6 K, 90000 kPa, Bellows volumetry | 1097
452.6 K, 100000 kPa, Bellows volumetry | 1101
452.6 K, 110000 kPa, Bellows volumetry | 1106
452.6 K, 120000 kPa, Bellows volumetry | 1111
452.6 K, 130000 kPa, Bellows volumetry | 1115
452.6 K, 140000 kPa, Bellows volumetry | 1119
452.6 K, 150000 kPa, Bellows volumetry | 1123
452.6 K, 160000 kPa, Bellows volumetry | 1128
452.6 K, 170000 kPa, Bellows volumetry | 1131
452.6 K, 180000 kPa, Bellows volumetry | 1135
452.6 K, 190000 kPa, Bellows volumetry | 1139
452.6 K, 200000 kPa, Bellows volumetry | 1143
472.5 K, 10000 kPa, Bellows volumetry | 1037
472.5 K, 20000 kPa, Bellows volumetry | 1045
472.5 K, 30000 kPa, Bellows volumetry | 1052
472.5 K, 40000 kPa, Bellows volumetry | 1058
472.5 K, 50000 kPa, Bellows volumetry | 1064
472.5 K, 60000 kPa, Bellows volumetry | 1070
472.5 K, 70000 kPa, Bellows volumetry | 1076
472.5 K, 80000 kPa, Bellows volumetry | 1081
472.5 K, 90000 kPa, Bellows volumetry | 1087
472.5 K, 100000 kPa, Bellows volumetry | 1092
472.5 K, 110000 kPa, Bellows volumetry | 1096
472.5 K, 120000 kPa, Bellows volumetry | 1101
472.5 K, 130000 kPa, Bellows volumetry | 1105
472.5 K, 140000 kPa, Bellows volumetry | 1110
472.5 K, 150000 kPa, Bellows volumetry | 1114
472.5 K, 160000 kPa, Bellows volumetry | 1118
472.5 K, 170000 kPa, Bellows volumetry | 1122
472.5 K, 180000 kPa, Bellows volumetry | 1126
472.5 K, 190000 kPa, Bellows volumetry | 1130
472.5 K, 200000 kPa, Bellows volumetry | 1134
